From ChEMBL document CHEMBL4421731, “Small molecules inhibiting oncoprotein Myc” (2016)
Active and inactive are the calls of the source. The rule behind the calls is not given here.

Columns and labels:
[1] = molecular target: Myc proto-oncogene protein (Homo sapiens) (UniProt P01106); assay: Inhibition of C-Myc in human melanoma (#9) cells assessed as reduction in lactate levels by [13C]-glucose labeling based assay; format: cell-based
Melanoma cell line = assay: Antitumor activity against human melanoma cells xenografted in mouse assessed as inhibition of tumor growth measured up to 8 days; format: functional, cell-based
[2] = molecular target: Myc proto-oncogene protein (Homo sapiens) (UniProt P01106); assay: Inhibition of C-Myc in human SK-MEL-103 cells assessed as reduction in MYC-dependent transcriptional activation incubated for 48 hrs by microarray relative to control; format: cell-based
SK-MEL-103 [3] = assay: Antitumor activity against human SK-MEL-103 cells xenografted in athymic nude mouse assessed as improvement in mouse survival at 50 mg/kg, ip dosed daily for 14 days dosed via Captisol formulation; format: functional, organism-based
[4] = Toxicity in athymic nude mouse xenografted with human SK-MEL-103 cells assessed as induction of weight loss at 50 mg/kg, ip dosed daily for 12 days dosed via Captisol formulation (reference value: 100 +/- 10%%); format: organism-based; conditions: in vivo, 288 h
[5] = Toxicity in athymic nude mouse xenografted with human SK-MEL-103 cells assessed as induction of weight loss at 50 mg/kg, ip dosed daily for 1 days dosed via Captisol formulation (reference value: 100 +/- 10%%); format: organism-based; conditions: in vivo, 24 h
[6] = Toxicity in athymic nude mouse xenografted with human SK-MEL-103 cells assessed as induction of weight loss at 50 mg/kg, ip dosed daily for 3 days dosed via Captisol formulation (reference value: 100 +/- 10%%); format: organism-based; conditions: in vivo, 72 h
[7] = molecular target: Myc proto-oncogene protein (Homo sapiens) (UniProt P01106); assay: Inhibition of C-Myc in human melanoma (#9) cells assessed as reduction in fumarate levels by [13C]-glucose labeling based assay; format: cell-based
[8] = Toxicity in athymic nude mouse xenografted with human SK-MEL-103 cells assessed as induction of sickness at 50 mg/kg, ip dosed daily for 14 days dosed via Captisol formulation and measured on day 16; format: organism-based; conditions: in vivo, 336 h
[9] = Toxicity in athymic nude mouse xenografted with human SK-MEL-103 cells assessed as induction of weight loss at 50 mg/kg, ip dosed daily for 14 days dosed via Captisol formulation; format: organism-based; conditions: in vivo, 336 h
[10] = Intrinsic clearance in mouse liver microsomes at 1 uM in presence of NADPH by LC-MS/MS analysis; format: ADME, Microsome
SK-MEL-103 [11] = assay: Antitumor activity against human SK-MEL-103 cells xenografted in athymic nude mouse assessed as improvement in mouse survival at 50 mg/kg, ip dosed daily for 4 days dosed via Captisol formulation; format: functional, organism-based
[12] = Toxicity in mouse xenografted with human melanoma cells measured up to 8 days; conditions: 192 h
[13] = molecular target: Myc proto-oncogene protein (Homo sapiens) (UniProt P01106); assay: Inhibition of C-Myc in human melanoma (#9) cells assessed as reduction in serine levels by [13C]-glucose labeling based assay; format: cell-based
[14] = molecular target: Myc proto-oncogene protein (Homo sapiens) (UniProt P01106); assay: Inhibition of C-Myc (unknown origin) expressed in rat HO15.19 cells assessed as accumulation at G0/G1 phase at 3 uM by flow cytometry (reference value: 35.43%); format: cell-based; design: scale not given: the % may be the effect or the level left
[15] = molecular target: Myc proto-oncogene protein (Homo sapiens) (UniProt P01106); assay: Inhibition of Myc in human melanoma cells assessed as increase in Myc-repressed p27kip1 gene expression; format: cell-based
[16] = molecular target: Myc proto-oncogene protein (Homo sapiens) (UniProt P01106); assay: Inhibition of Myc in human melanoma cells assessed as reduction in Myc-transactivated thymidylate synthase gene expression; format: cell-based
[17] = Toxicity in athymic nude mouse xenografted with human SK-MEL-103 cells assessed as induction of weight loss at 50 mg/kg, ip dosed daily for 10 days dosed via Captisol formulation (reference value: 100 +/- 10%%); format: organism-based; conditions: in vivo, 240 h
[18] = molecular target: Myc proto-oncogene protein (Homo sapiens) (UniProt P01106); assay: Inhibition of C-Myc in human melanoma (#9) cells assessed as reduction in pyruvate levels by [13C]-glucose labeling based assay; format: cell-based
[19] = Intrinsic clearance in human liver microsomes at 1 uM in presence of NADPH by LC-MS/MS analysis; format: ADME, Microsome
[20] = Toxicity in athymic nude mouse xenografted with human SK-MEL-103 cells assessed as induction of weight loss at 50 mg/kg, ip dosed daily for 14 days dosed via Captisol formulation (reference value: 100 +/- 10%%); format: organism-based; conditions: in vivo, 336 h
SK-MEL-103 [21] = assay: Antitumor activity against human SK-MEL-103 cells xenografted in athymic nude mouse assessed as inhibition of tumor growth at 50 mg/kg, ip dosed daily; format: functional, organism-based
[22] = Toxicity in athymic nude mouse xenografted with human SK-MEL-103 cells assessed as induction of distress at 50 mg/kg, ip dosed daily for 14 days dosed via Captisol formulation and measured on day 16; format: organism-based; conditions: in vivo, 336 h
SK-MEL-103 [23] = assay: Antitumor activity against human SK-MEL-103 cells xenografted in athymic nude mouse assessed as initial tumor level at 50 mg/kg, ip dosed daily for 14 days dosed via Captisol formulation (reference value: 80%); format: functional
HO15.19 = assay: Induction of cell cycle arrest in rat HO15.19 cells assessed as accumulation at G0/G1 phase at 3 uM by flow cytometry (reference value: 50.76%); format: cell-based; conditions: ho15.19, 3 µM
[24] = Toxicity in athymic nude mouse xenografted with human SK-MEL-103 cells assessed as induction of weight loss at 50 mg/kg, ip dosed daily for 5 days dosed via Captisol formulation (reference value: 100 +/- 10%%); format: organism-based; conditions: in vivo, 120 h

Myc proto-oncogene protein (Homo sapiens), sequence (P01106 whole entry): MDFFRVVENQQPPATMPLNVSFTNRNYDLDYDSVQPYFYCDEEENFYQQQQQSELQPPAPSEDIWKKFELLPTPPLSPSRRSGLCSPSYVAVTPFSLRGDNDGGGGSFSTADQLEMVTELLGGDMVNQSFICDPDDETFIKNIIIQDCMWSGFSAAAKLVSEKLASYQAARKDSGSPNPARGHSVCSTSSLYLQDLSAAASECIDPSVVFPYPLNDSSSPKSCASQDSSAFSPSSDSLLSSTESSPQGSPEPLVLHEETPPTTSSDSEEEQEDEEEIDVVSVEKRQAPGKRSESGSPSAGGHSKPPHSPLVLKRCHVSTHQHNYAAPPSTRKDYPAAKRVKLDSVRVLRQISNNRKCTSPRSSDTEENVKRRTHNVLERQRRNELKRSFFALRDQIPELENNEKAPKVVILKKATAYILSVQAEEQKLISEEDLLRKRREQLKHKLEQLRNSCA

In the case of `CCN(CC)c1ccc(/C=N/NC(=O)Cn2nnc(-c3ccccc3)n2)c(O)c1`, the inhibition [1] is reported as “Active”, the TGI (Melanoma cell line) is reported as “Active” and the inhibition [2] is reported as “Active”. For the same compound, the Activity (SK-MEL-103 [3]) was “Active”, the Activity [4] was 113.3% and the Activity [5] was 100%. The Activity [6] was 103.3%, the inhibition [7] was “Active” and the Activity [8] was “Non-Toxic”. For the same compound, the Activity [9] was “Non-Toxic”, the intrinsic clearance [10] was 270 µL/min/mg and the TGI (SK-MEL-103 [11]) was “inactive”. For the same compound, the Activity [12] was “Non-Toxic”, the inhibition [13] was “Active” and the Activity [14] was 49.7%. The inhibition [15] was “Active”, the inhibition [16] was “Active” and the Activity [17] was 111.4%. The inhibition [18] was “Active”, the intrinsic clearance [19] was 110 µL/min/mg and the Activity [20] was 114.5%. For the same compound, the TGI (SK-MEL-103 [21]) was “Active”, the Activity [22] was “Non-Toxic” and the Activity (SK-MEL-103 [23]) was under 50%. For the same compound, the Activity (HO15.19) was 54.9% and the Activity [24] was 103.8%.
